Experimental data: EPA's ToxValDB 9.5
Several values for one entry are separate records, joined by “and”; a condition that tells them apart may be missing. Equal entries are not always repeated.

Columns and labels:
[1] = system: Mus musculus; settings: subchronic, oral, M/F, CD1, Hepatic
[2] = system: Mus musculus; settings: subchronic, oral, M/F
[3] = system: Rattus norvegicus; settings: acute
[4] = system: Mus musculus; settings: subchronic; duration: 90 days; oral; drinking water; M/F; CD1; immunological, hepatic
[5] = system: Rattus norvegicus
[6] = system: Mus musculus; settings: for LD50: acute
[7] = system: Cavia porcellus; settings: acute, Guinea Pig; for LD50: dermal
[8] = system: Oryctolagus sp.; settings: for NOAEL: reproduction developmental, duration: 13 days, oral, gavage, New Zealand
[9] = system: Rattus norvegicus; settings: subchronic, oral, diet
[10] = system: Rattus norvegicus; assay: LC0; higher = less toxic; settings: acute; inhalation
[11] = system: Rattus norvegicus; settings: inhalation
[12] = system: Canidae; settings: acute; duration: 10 minutes; inhalation; unknown; Dog Other; Whole Body: Seizures
[13] = drinking water, clinical serum chemistry (effects on erythrocytes and reduced humoral immune status)
[14] = gavage, dyspnea, abnormal appearance, liver enlargement
[15] = subchronic, duration: 90 days, oral, diet, Fischer 344
[16] = reproduction developmental, injection, Intraperitoneal, generation: F1
[17] = duration: 13 weeks, M/F, Fischer 344, Body Weight Changes: Body weight gain decrease + Food Consumption: decrease + Hematology: MCH decrease MCV decrease + Blood Chemistry: T-…
[18] = reproduction developmental, duration: 9 days, F, Crl:CD(SD), generation: P0, P0: Skin: Stained Fur + P0: Whole Body: Body Weight Change + P0: Whole Body: Convulsions + P0: Whole Body: Feed Consumption, Absolute
[19] = reproduction developmental, duration: 9 days, M/F, Crl:CD(SD), generation: F1, F1: Whole Body: Pup Weight Relative to Litter
[20] = reproduction developmental, duration: 107 days, M, Crj:CD, generation: P0, P0: Whole Body: Clonic Seizures + P0: Whole Body: Mortality
[21] = reproduction developmental, duration: 121 days, F, Crl:CD(SD), generation: P0, P0: Liver: Liver Weight, Absolute + P0: Liver: Liver Weight, Relative + P0: Pituitary: Pituitary Gland Weight, Absolute + P0: Pituitary: …
[22] = subchronic, duration: 90 days, F, Crl:CD(SD) BR, Blood: Albumin (A) + Renal: Urine Osmolality + Renal: Urine Volume (UVOL) + Whole Body: Motor Activity
[23] = subchronic, duration: 90 days, F, Crl:CD(SD) BR, Central Nervous System: Abnormal Behavior
[24] = subchronic, duration: 90 days, M, Crl:CD(SD) BR, Blood: Albumin (A) + Whole Body: Motor Activity
[25] = subchronic, duration: 90 days, M, Crl:CD(SD) BR, Central Nervous System: Abnormal Behavior

## ClCC(Cl)Cl [1,1,2-Trichloroethane]
[1]; duration: 90 days, drinking water, Other
  NOAEL: 3.9 mg/kg-day
[2]; [13]
  LOAEL: 44 mg/kg-day
  NOAEL: 3.9 mg/kg-day
[3]; duration: 4 hours, inhalation, whole body, M/F, Fischer 344, respiratory
  LOAEL: 316 mg/m3
[3]; duration: 1 days, oral, gavage, M, Sprague-Dawley, hepatic
  NOAEL: 46 mg/kg-day
[4]
  NOAEL: 3.9 mg/kg-day

## Clc1ccc2ccccc2c1 [2-Chloronaphthalene]
[1]; duration: 13 weeks, gavage, Respiratory
  NOAEL: 250 mg/kg-day
[2]; [14]
  LOAEL: 600 mg/kg-day
  NOAEL: 250 mg/kg-day

## CCCCC(CC)C(=O)O (stereo not given) [2-Ethylhexanoic acid]
[5]; acute, dermal
  LD50: > 2000 mg/kg
[5]; acute, inhalation
  LC50: > 0.015 µg/mL
[5]; acute, oral, gavage
  LD50: ≥ 1600 mg/kg and ≤ 3200 mg/kg
[5]; acute, oral, gavage, Sprague-Dawley
  LD50: ≥ 1600 mg/kg and ≤ 3200 mg/kg
[5]; reproduction developmental, duration: 10 days, oral, gavage, F, Fischer 344
  NOAEL: 250 mg/kg-day
[5]; reproduction developmental, duration: 14 days, oral, drinking water, F, Wistar
  NOAEL: 300 mg/kg-day
[5]; reproduction developmental, oral, F, Sprague-Dawley
  LOAEL: 446 mg/kg-day
[5]; reproduction developmental, oral, Sprague-Dawley, generation: F1
  NOAEL: 446 mg/kg-day
[5]; reproduction developmental, oral, drinking water, Wistar, generation: F0
  NOAEL: 300 mg/kg-day
[5]; reproduction developmental, oral, drinking water, Wistar, generation: F1
  NOAEL: 100 mg/kg-day
[5]; reproduction developmental, oral, gavage, Wistar, generation: F1
  NOAEL: 900 mg/kg-day
[5]; short-term, duration: 2 weeks, oral, gavage, F, Fischer 344
  NOAEL: 200 mg/kg-day
[5]; short-term, duration: 2 weeks, oral, gavage, M, Fischer 344
  NOAEL: 200 mg/kg-day
[5]; subchronic, duration: 13 weeks, oral, diet, Fischer 344
  NOAEL: 300 mg/kg-day
[5]; [15]
  LOAEL (% diet): 0.5
  NOAEL (% diet): 0.1
[5]; subchronic, oral, diet, Fischer 344
  NOAEL (% diet): 5
[6]; injection, Intraperitoneal
  LD50: 270 mg/kg
[6]; injection, subcutaneous
  LD50: 910 mg/kg
[6]; repeat dose other, oral, diet
  NOAEL (% diet): 1
[6]; reproduction developmental, injection, Intraperitoneal, NMRI, generation: F1
  NOAEL: 500 mg/kg-day
[6]; [16]
  LOAEC: 1730 mg/kg-day
  NOAEL: ≤ 1150 mg/kg-day
[6]; short-term, duration: 2 weeks, oral, gavage, F, B6C3F1
  NOAEL: 1600 mg/kg-day
[6]; short-term, duration: 2 weeks, oral, gavage, M, B6C3F1
  NOAEL: 800 mg/kg-day
[7]
  LD50: 6300 mg/kg and 5700 mg/kg and 4550 mg/kg
[7]; occlusive
  LD50: 6500 mg/kg and ≥ 5000 mg/kg and ≤ 10000 mg/kg
[7]; inhalation
  LC50: > 2.39 µg/mL
[8]; acute, dermal
  LD50: 1260 mg/kg
[8]; F
  NOAEL: 25 mg/kg-day
[8]; generation: F1
  NOAEL: 250 mg/kg-day
[9]; [17]
  NOAEL: 0.5%
  NOEL: 0.1%
[9]; F, F344/CrjBR, Body Weight Changes: decrease + Food Consumption: decrease + Blood Chemistry: Cho increase , Alb increase + Absolute Organ Weight: Liver …
  NOEL: < 71 mg/kg-day
[9]; M/F, F344/CrjBR, Body Weight Changes: decrease + Food Consumption: decrease + Blood Chemistry: Cho increase , Alb increase + Absolute Organ Weight: Liver …
  NOEL: < 0.1%
[10]
  LC0: 2.36 mg/L

## FC(C(F)C(F)(F)C(F)(F)F)C(F)(F)F (stereo not given) [2H,3H-Decafluoropentane]
[11]; reproduction developmental, duration: 9 days, F, Crl:CD(SD), generation: P0, P0: Ovary: Corpora Lutea + P0: Uterus: Implantation + P0: Uterus: Uterine Weight, Gravid
  NOAEL: 35800 mg/m3
[11]; [18]
  LOAEL: 20000 mg/m3
  NOAEL: 5170 mg/m3
[11]; reproduction developmental, duration: 9 days, M/F, Crl:CD(SD), generation: F1, F1: Multi-Organ: Soft Tissue Examinations + F1: Skeleton: Skeletal Examinations + F1: Uterus: Resorptions, Early + F1: Uterus: Resorptions, …
  NOAEL: 35800 mg/m3
[11]; [19]
  LOAEL: 35800 mg/m3
  NOAEL: 20000 mg/m3
[11]; reproduction developmental, duration: 107 days, M, Crj:CD, generation: P0, P0: Liver: Liver Weight, Absolute + P0: Liver: Liver Weight, Relative + P0: Pituitary: Pituitary Gland Weight, Absolute + P0: Pituitary: …
  NOAEL: 36100 mg/m3
[11]; [20]
  LOAEL: 36100 mg/m3
  NOAEL: 20600 mg/m3
[11]; [21]
  LOAEL: 36100 mg/m3
  NOAEL: 20600 mg/m3
[11]; reproduction developmental, duration: 121 days, F, Crl:CD(SD), generation: P0, P0: Uterus: Implantation + P0: Whole Body: Fertility Index + P0: Whole Body: Maternal Body Weight + P0: Whole Body: Maternal Body Weight …
  NOAEL: 36100 mg/m3
[11]; reproduction developmental, duration: 121 days, M/F, Crl:CD(SD), generation: F1, F1: Whole Body: Necropsy Appeared Normal + F1: Whole Body: Pup Weight Relative to Litter + F1: Whole Body: Survival + F1: Whole Body: …
  NOAEL: 36100 mg/m3
[11]; subchronic, duration: 90 days, F, Crl:CD(SD) BR, Adrenal: Adrenal Gland Histopathology + Adrenal: Adrenal Gland Weight, Absolute + Adrenal: Adrenal Gland Weight, Relative + Brain: Brain …
  NOAEL: 36100 mg/m3
[11]; [22]
  LOAEL: 36100 mg/m3
  NOAEL: 20600 mg/m3
[11]; [23]
  LOAEL: 20600 mg/m3
  NOAEL: 5150 mg/m3
[11]; subchronic, duration: 90 days, M, Crl:CD(SD) BR, Adrenal: Adrenal Gland Histopathology + Adrenal: Adrenal Gland Weight, Absolute + Adrenal: Adrenal Gland Weight, Relative + Brain: Brain …
  NOAEL: 36100 mg/m3
[11]; [24]
  LOAEL: 36100 mg/m3
  NOAEL: 20600 mg/m3
[11]; [25]
  LOAEL: 20600 mg/m3
  NOAEL: 5150 mg/m3
[12]
  LOAEL: 103000 mg/m3
  NOAEL: 51500 mg/m3
